Experimental data from the supplement of paper PMC10307832.

Key:
Test in all cases: relative viability (nuclei count vs DMSO), 5 days (fraction); higher = more cells survive
[1] = test system: Calu-6
How it was run: (§1)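 Dosing by pin tool came one day after lung cancer cell lines were seeded in 1536-well plates, using either one drug or a fixed anchor-drug dose plus five library-drug doses (not always all listed) in √10 steps. After 5 days, nuclei were counted on 4× images. Relative viability is treated-well nuclei count divided by vehicle-well nuclei count, and values are medians of duplicate plates.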

[2] = test system: IA-LM
How it was run: as §1

[3] = test system: NCI-H1703
How it was run: as §1

[4] = test system: EBC-1
How it was run: as §1

[5] = test system: NCI-H1563
How it was run: as §1

[6] = test system: NCI-H1299
How it was run: as §1

[7] = test system: A549
How it was run: as §1

[8] = test system: NCI-H1648
How it was run: as §1

[9] = test system: SW 900
How it was run: as §1

[10] = test system: NCI-H522
How it was run: as §1

[11] = test system: NCI-H2342
How it was run: as §1

In the case of `O=C(O)CCCCC(CCSCc1ccccc1)SCc1ccccc1` (stereo not given) [CPI-613] + CS(=O)(=O)CCNCc1ccc(-c2ccc3ncnc(Nc4ccc(OCc5cccc(F)c5)c(Cl)c4)c3c2)o1 [Lapatinib] (partner 2 µM), the relative viability ([1]; first compound 5 µM) is reported as 1.04, the relative viability ([1]; first compound 15.81 µM) is reported as 1.03 and the relative viability ([1]; first compound 50 µM) is reported as 0.866. The relative viability ([1]; first compound 158.11 µM) was 0.775, the relative viability ([1]; first compound 500 µM) was 0.563 and the relative viability ([2]; first compound 5 µM) was 0.694. The relative viability ([2]; first compound 15.81 µM) was 0.802, the relative viability ([2]; first compound 50 µM) was 0.665 and the relative viability ([2]; first compound 158.11 µM) was 0.269. The relative viability ([2]; first compound 500 µM) was 0.208, the relative viability ([3]; first compound 5 µM) was 0.943 and the relative viability ([3]; first compound 15.81 µM) was 1.11. It also gave a relative viability ([3]; first compound 50 µM) of 1.1, a relative viability ([3]; first compound 158.11 µM) of 0.452 and a relative viability ([3]; first compound 500 µM) of 0.274. For the same compound, the relative viability ([4]; first compound 5 µM) was 0.252, the relative viability ([4]; first compound 15.81 µM) was 0.213 and the relative viability ([4]; first compound 50 µM) was 0.212. It also gave a relative viability ([4]; first compound 158.11 µM) of 0.175, a relative viability ([4]; first compound 500 µM) of 0.145 and a relative viability ([5]; first compound 5 µM) of 1. For the same compound, the relative viability ([5]; first compound 15.81 µM) was 0.886, the relative viability ([5]; first compound 50 µM) was 0.998 and the relative viability ([5]; first compound 158.11 µM) was 0.427. For the same compound, the relative viability ([5]; first compound 500 µM) was 0.103, the relative viability ([6]; first compound 5 µM) was 0.923 and the relative viability ([6]; first compound 15.81 µM) was 0.945. For the same compound, the relative viability ([6]; first compound 50 µM) was 0.965, the relative viability ([6]; first compound 158.11 µM) was 0.899 and the relative viability ([6]; first compound 500 µM) was 0.888. It also gave a relative viability ([7]; first compound 5 µM) of 0.933, a relative viability ([7]; first compound 15.81 µM) of 0.967 and a relative viability ([7]; first compound 50 µM) of 0.787. It also gave a relative viability ([7]; first compound 158.11 µM) of 0.348 and a relative viability ([7]; first compound 500 µM) of 0.249.
`O=C(O)CCCCC(CCSCc1ccccc1)SCc1ccccc1` (stereo not given) [CPI-613] + CS(=O)(=O)N1CCN(Cc2cc3nc(-c4cccc5[nH]ncc45)nc(N4CCOCC4)c3s2)CC1 [Pictilisib] (partner 1 µM) showed a relative viability ([1]; first compound 5 µM) of 0.938, a relative viability ([1]; first compound 15.81 µM) of 0.811 and a relative viability ([1]; first compound 50 µM) of 0.754. The relative viability ([1]; first compound 158.11 µM) was 0.446, the relative viability ([1]; first compound 500 µM) was 0.111 and the relative viability ([2]; first compound 5 µM) was 0.294. The relative viability ([2]; first compound 15.81 µM) was 0.307, the relative viability ([2]; first compound 50 µM) was 0.238 and the relative viability ([2]; first compound 158.11 µM) was 0.0746. It also gave a relative viability ([2]; first compound 500 µM) of 0.0098, a relative viability ([3]; first compound 5 µM) of 0.25 and a relative viability ([3]; first compound 15.81 µM) of 0.264. It also gave a relative viability ([3]; first compound 50 µM) of 0.27, a relative viability ([3]; first compound 158.11 µM) of 0.213 and a relative viability ([3]; first compound 500 µM) of 0.115. It also gave a relative viability ([4]; first compound 5 µM) of 0.391, a relative viability ([4]; first compound 15.81 µM) of 0.37 and a relative viability ([4]; first compound 50 µM) of 0.362. It also gave a relative viability ([4]; first compound 158.11 µM) of 0.206, a relative viability ([4]; first compound 500 µM) of 0.0773 and a relative viability ([5]; first compound 5 µM) of 0.657. The relative viability ([5]; first compound 15.81 µM) was 0.597, the relative viability ([5]; first compound 50 µM) was 0.623 and the relative viability ([5]; first compound 158.11 µM) was 0.513. The relative viability ([5]; first compound 500 µM) was 0.193, the relative viability ([6]; first compound 5 µM) was 0.789 and the relative viability ([6]; first compound 15.81 µM) was 0.756. The relative viability ([6]; first compound 50 µM) was 0.785, the relative viability ([6]; first compound 158.11 µM) was 0.404 and the relative viability ([6]; first compound 500 µM) was 0.106. The relative viability ([7]; first compound 5 µM) was 0.491, the relative viability ([7]; first compound 15.81 µM) was 0.414 and the relative viability ([7]; first compound 50 µM) was 0.39. It also gave a relative viability ([7]; first compound 158.11 µM) of 0.127 and a relative viability ([7]; first compound 500 µM) of 0.0559.
For `Cc1cnc(-c2cnc(NCCNc3ccc(C#N)cn3)nc2-c2ccc(Cl)cc2Cl)[nH]1` + Nc1nc2[nH]cc(CCc3ccc(C(=O)N[C@@H](CCC(=O)O)C(=O)O)cc3)c2c(=O)[nH]1 [Pemetrexed] (partner 0.2 µM), the relative viability ([8]; first compound 0.08 µM) was 0.545, the relative viability ([8]; first compound 0.253 µM) was 0.723 and the relative viability ([8]; first compound 0.8 µM) was 0.703. For the same compound, the relative viability ([8]; first compound 2.53 µM) was 0.653, the relative viability ([9]; first compound 0.08 µM) was 0.501 and the relative viability ([9]; first compound 0.253 µM) was 0.487. It also gave a relative viability ([9]; first compound 0.8 µM) of 0.478, a relative viability ([9]; first compound 2.53 µM) of 0.438 and a relative viability ([10]; first compound 0.08 µM) of 1.08. It also gave a relative viability ([10]; first compound 0.253 µM) of 1.03, a relative viability ([10]; first compound 0.8 µM) of 0.97 and a relative viability ([10]; first compound 2.53 µM) of 1.07. For the same compound, the relative viability ([5]; first compound 0.08 µM) was 0.746, the relative viability ([5]; first compound 0.253 µM) was 0.805 and the relative viability ([5]; first compound 0.8 µM) was 0.768. It also gave a relative viability ([5]; first compound 2.53 µM) of 0.722, a relative viability ([11]; first compound 0.08 µM) of 0.823 and a relative viability ([11]; first compound 0.253 µM) of 0.633. For the same compound, the relative viability ([11]; first compound 0.8 µM) was 0.721 and the relative viability ([11]; first compound 2.53 µM) was 0.736.
